US4080467A, “Pharmaceutical compositions comprising 1,3-dithiolan-2-ylidene malonate derivatives” (Nihon Nohyaku Co., Ltd., priority 1976, dated 1978)

Tests used:
[1] = system: Acute Liver Damage associated with Centrilobular Necrosis (carbon tetrachloride); experiment: Protective effect on acute liver damage associated with centrilobular necrosis (carbon tetrachloride model); format: in vivo, mice (four-week-old male, dd strain); settings: 250 mg/kg oral 6 h before CCl4, average of 5 to 6 mice
Excerpt: Carbon tetrachloride (CCl4) administration induces centrilobular necrosis of the liver associated with loss of diphosphopyridine nucleotide, hepatic glycogen, coenzyme A and increase in neutral fat. Release of several enzymes from the hepatocytes, and increases of enzyme activities in the plasma are recognized as the result of the damage of the liver. A suitable means for evaluating the degree of damage induced by CCl4 or the degree of protection afforded by drugs is to study the plasma glutamic-pyruvic transaminase (p-GPT) activity.
Method: The test compounds were dissolved or suspended in olive oil and administered orally at the dose of 250 mg/kg to the mice (Four-week-old male mice-dd strain). After 6 hours, CCl4 was administered orally (0.05 ml/kg as olive oil solution). Animals were killed 24 hours after CCl4 administration, and the liver was grossly observed. The plasma was obtained by centrifugation. Activities of p-GPT were determined by the method of Reitman and Frankel and expressed in Karmen units.
Score for liver damage was as follows: […]
4 Clearly observable damage
Each figure indicates average of 5 to 6 mice. Values of p-GPT over 1,000 Karmen unit regarded as 1,000 for calculation of average for convenience.

[2] = system: acute liver damage associated with discrete lobular necrosis (D-galactosamine); experiment: Protective effect on acute hepatitis with mesenchymal reaction and discrete lobular necrosis (D-galactosamine model); format: in vivo, male rat (SD strain); settings: 100 mg/kg oral 6 h before D-galactosamine
Procedure: D-Galactosamine is a compound which induces a discrete lobular necrosis associated with mesenchymal reaction similar to the change observed in human viral hepatitis, so that it is frequently used in producing a model for viral hepatitis.
The compound of this invention or anethol trithion was administered orally to the male rat (SD strain) at the dose of 100 mg/kg. Six hours after it, D-galacetosamine was intraperitoneally administered at the dose of 600 mg/kg. Four hours after it, an additional 300 mg/kg was administered intraperitoneally. Eight hours after it, the animals were sacrificed to collect the blood samples. P-GPT activity and triglyceride in the liver were measured to evaluate the effect of the compound of this invention.

[3] = system: acute liver damage associated with periportal necrosis (allyl alcohol); experiment: Protective effect on acute liver damage associated with periportal necrosis (allyl alcohol model), BSP test; format: in vivo, male mouse (4 week-old dd-strain); settings: 100 mg/kg oral 6 h before allyl alcohol 0.075 ml/kg; 24 h after
Procedure: The compound of this invention or anethol trithion was orally administered to the male mouse (4 week-old dd-strain) at the dose of 100 mg/kg. Six hours after it, allyl alcohol was orally administered at the dose of 0.075 ml/kg. Twenty four hours after it, the animals were sacrificed to collect blood samples. The residual quantity of BSP was measured by BSP test, from which the protective effect of the compound of this invention was evaluated.

[4] = system: Chronic Liver Damage (thioacetamide); experiment: Therapeutic effect on chronic liver damage (thioacetamide model), BSP test; format: in vivo, rats (Sprague Dawley strain); settings: 12 times TAA 100 mg/kg, then diet + 0.2% compound
Procedure: In the tests of this Example, TAA was repeatedly administered to animals to prepare test animals suffering from somewhat chronic liver damages, and then the present compounds were administered thereto to know whether or not the compounds were effective against chronic hepatitis.
The degree of the liver damage and the therapeutic effects of the compounds were evaluated according to BSP test. The BSP test is a method in which BSP (sulfobromophthalein sodium), a dye known to be quickly metabolized in and excreted from the liver, is intravenously injected into animals and, after a definite period of time, the blood is taken out to measure the amount of BSP remaining in the plasma. In case the animals are suffering from the liver damage, the dye will remain, according to the degree of the damage, at the stage where a major portion of BSP is metabolized and excreted in the case of normal animals.
Five groups of rats (Sprague Dawley strain) were treated as follows:
Group A: The rats were orally administered with 100 mg/kg of thioacetamide,at 3 days intervals for 36 days (12 times of the administration), then were submitted for 10 days to a normal diet.
Group B: The rats were orally administered with 100 mg/kg of thioacetamide at 3 days intervals for 36 days (12 times of the administration), then were submitted for 10 days to the normal diet + 0.2% of compound 4.
Group C: The rats were orally administered with 100 mg/kg of thioacetamide at 3 days intervals for 36 days (12 times of the administration) then were submitted for 10 days to the normal diet + 0.2% of compound 2.
Group D: The rats were orally administered with 100 mg/kg of thioacetamide at 3 days intervals for 36 days (12 times of the administration) then were submitted for 10 days to the normal diet + 0.2% of anethol trithion.
Group E: The rats were submitted to the normal diet as the control.
Five rats were sacrified from each group at appropriate intervals for BSP (sulfobromophthalein) test, the results of which were shown as amounts (mg) of BSP remaining in 1 dl of plasma.

[5] = system: bile flow and biliary salt; experiment: Cholagogic action: bile flow and excretion of biliary salt; format: in vivo, male rat (4 week-aged, SD-JCL strain); settings: 200 mg/kg oral; for bile flow / excretion of biliary salt: before treatment = 100
Procedure: The male rat (4 week-aged, SD-JCL strain) was anesthetized with sodium pentobarbital (37.5 mg/kg, intraperitoneal injection). The abdominal cavity was opened through a midline incision. The common bile duct was catheterized with polyethylene tube o.d. 0.8 mm. The catheter was brought to the outside through the abdominal incision wound prior to closing. Bile was collected from the catheter continuously with time intervals of one hour. The quantity of bile produced in one hour was determined by weighing and that of biliary salt was determined by enzymatic method (Ikagaku Jikkenho Koza 1B, Biological Constituents II, edited by Tamio YAMAKAWA). The amount of biliary salts was represented as cholic acid equivalent.
In the representation of the results, the quantities of bile and biliary salts produced in one hour prior to the administration of drug were taken as 100. The compound of this invention was orally administered at the dose of 200 mg/kg. As reference anethol trithion was used.

Compound: COc1ccc(-c2cc(=S)ss2)cc1 [Anethol trithion, anethol trithion, reference compound]
- p-GPT (plasma glutamic-pyruvic transaminase activity) ([1]; 24 h after CCl4, values over 1,000 regarded as 1,000): 38 Karmen units
- Liver Damage Index ([1]; 0 normal, 2 slightly recognized, 4 clearly observable damage, 6 heavy damage): 1.6
- Triglyceride in liver [2]: 9.2 ± 1.5 mg/g
- p-GPT [2]: 106±30 Karmen unit
- Index of hepatotoxicity: BSP (residual quantity of BSP) [3]: 19.3±4.6
- Concentration of BSP in plasma ([4]; 2 Days): 9.7 ± 4.1 mg/dL
- Concentration of BSP in plasma ([4]; 5 Days): 7.3 ± 3.4 mg/dL
- Concentration of BSP in plasma ([4]; 10 Days): 0.9 ± 0.1 mg/dL
- bile flow ([5]; 1 hour after treatment): 114±15
- excretion of biliary salt ([5]; 1 hour after treatment): 108±12
- bile flow ([5]; 2 hours after treatment): 114±15
- excretion of biliary salt ([5]; 2 hours after treatment): 89±11
- bile flow ([5]; 3 hours after treatment): 102±11
- excretion of biliary salt ([5]; 3 hours after treatment): 66±3.8
- bile flow ([5]; 4 hours after treatment): 95±7.7
- excretion of biliary salt ([5]; 4 hours after treatment): 47±3.0
- bile flow ([5]; 5 hours after treatment): 86±6.6
- excretion of biliary salt ([5]; 5 hours after treatment): 3.3±4.0
- Quantity of total excreted bile for 5 hours relative to control ([5]; versus control): 1.10 times
